For series [1], the system named is MKN-45 (gastric carcinoma). Put plainly: Cytotoxicity, MTT assay, MKN-45 cells. The note with it: human gastric carcinoma cells, 144 hours incubation, read-out: MKN-45 (IC50, μg/ml). In kind it is cell-based. The method, then:
(§1) The compounds according to the invention have been pharmacologically tested against four human tumor cell lines: HT 29 (colon carcinoma), PC 3 (prostate carcinoma), H 460M (lung carcinoma), MKN-45 (gastric carcinoma). Cells were incubated with the tested compound for 144 hours, then cytotoxicity was determined by using the MTT assay (Mosman, T. “Rapid Colorimetric Assay for Cellular Growth and Survival: Application to Proliferation and Cytotoxicity Assay”; J. Immunolog. Methods, (1983), 65, 66; Green, L. M., “Rapid Colorimetric Assay for Cell Viability; Application to the Quantitation of Cytotoxic and Growth Inhibitory Lymphokines”, J. Immunol. Methods, (1984),;70, 257-268).
(§2) The compounds according to the invention have been pharmacologically tested against four human tumour cell lines: HT 29 (colon carcinoma), PC 3 (prostate carcinoma), H 460M (lung carcinoma), MKN45 (gastric carcinoma). Cells were incubated with the tested compound for 144 hours, then cytotoxicity was determined by using the MTT assay (Mosman, T. “Rapid Colorimetric Assay for Cellular Growth and Survival: Application to Proliferation and Cytotoxicity Assay”; J. Immunolog. Methods, (1983), 65, 66; Green, L. M., “Rapid Colorimetric Assay for Cell Viability; Application to the Quantitation of Cytotoxic and Growth Inhibitory Lymphokines”, J. Immunol. Methods, (1984), 70, 257-268).
A general note: Formazan colour is commonly taken as a measure of viable cells.

For series [2], the system named is PC 3 (prostate carcinoma). In words: Cytotoxicity, MTT assay, PC 3 cells. The series is classed as cell-based. The note with it: human prostate carcinoma cells, 144 hours incubation, read-out: PC3 (IC50, μg/ml). The method, then: as §1, §2
The test system of a further series is HT 29 (colon carcinoma). In words: Cytotoxicity, MTT assay, HT 29 cells. In kind it is cell-based. The note with it: human colon adenocarcinoma cells, 144 hours incubation, read-out: HT29 (IC50, μg/ml). The method, then:
as §1, §2

Another series relates to H 460M (lung carcinoma). In words: Cytotoxicity, MTT assay, H 460M cells. The note with it: human lung carcinoma cells, 144 hours incubation, read-out: H460M (IC50, μg/ml). The series is classed as cell-based. Here is the method: as §1, §2

In brackets after ≈: the same amount, converted by molar mass.

In patent US6753342B2, “2-(1h-indol-3-yl)-2-oxo-acetamides with antitumor activity” (Novuspharma S.p.A., priority 1999, dated 2004) one finds melting point and IC50 data, which are given here for 7 compounds.

As a reminder, the melting point is the temperature of the solid-liquid transition. For `NCCNC(=O)c1cccc2c1c(C(=O)C(=O)NC1=CC(=O)OC1)cn2Cc1ccc(Cl)cc1`, the melting point lay within 190 to 196 °C.

Regarding `O=C1C=C(NC(=O)C(=O)c2cn(Cc3ccc(Cl)cc3)c3cccc(CO)c23)CO1`, the melting point was 238 to 240 °C.

`O=C1C=C(NC(=O)C(=O)c2cn(Cc3ccc(Cl)cc3)c3ccccc23)CS1` registered a melting point of 268 to 270 °C.

The compound `CN(C)CCNC(=O)c1cccc2c1c(C(=O)C(=O)NC1=CC(=O)OC1)cn2Cc1ccc(Cl)cc1` gave a melting point of 225 to 227 °C.

Consider `O=C1C=C(NC(=O)C(=O)c2cn(Cc3ccc(Cl)cc3)c3ccccc23)CO1` [Example 2, N-(5-oxo-2,5-dihydrofuran-3-yl)-2-(1-(4-chlorobenzyl)-1H-indol-3-yl)-2-oxo-acetamide], for which the melting point was 253 to 255 °C. Also, the IC50 in series [1] came out at 0.048 µg/mL (≈ 0.122 µM). For the same compound, in series [2], the IC50 amounted to 0.22 µg/mL (≈ 0.557 µM). The IC50 with HT 29 (colon carcinoma) stood at 0.13 µg/mL (≈ 0.329 µM). The IC50 with H 460M (lung carcinoma) came to 0.011 µg/mL (≈ 0.0279 µM).

For `O=C1C=C(NC(=O)C(=O)c2cn(Cc3ccc(F)cc3)c3ccccc23)CO1` [Example 3, N-(5-oxo-2,5-dihydrofuran-3-yl)-2-(1-(4-fluorobenzyl)-1H-indol-3-yl)-2-oxo-acetamide], the melting point is 260 to 262 °C. Besides, in series [1], the IC50 worked out at 0.088 µg/mL (≈ 0.233 µM). The IC50 in series [2] turned out to be 0.035 µg/mL (≈ 0.0925 µM). Further, the IC50 with HT 29 (colon carcinoma) stood at 0.0004 µg/mL (≈ 0.00106 µM). Moreover, in the series with H 460M (lung carcinoma), the IC50 worked out at 0.012 µg/mL (≈ 0.0317 µM).

For the compound `O=C1C=C(NC(=O)C(=O)c2cn(Cc3ccc(Cl)cc3)c3cc(Cl)ccc23)CO1` [Example 4], the IC50 in series [1] is 0.12 µg/mL (≈ 0.28 µM); in series [2], 0.3 µg/mL (≈ 0.699 µM); in the series on HT 29 (colon carcinoma), 0.1 µg/mL (≈ 0.233 µM); in the series on H 460M (lung carcinoma), 0.049 µg/mL (≈ 0.114 µM).
